The supplement of paper PMC10307832

How the values were obtained:
Experiment in all cases: relative viability (nuclei count vs DMSO), 5 days (fraction); higher = more cells survive
JZL-184 + OSI-027 = compound: C1CN(CCC1C(C2=CC3=C(C=C2)OCO3)(C4=CC5=C(C=C4)OCO5)O)C(=O)OC6=CC=C(C=C6)[N+](=O)[O-] [JZL-184] + COc1cccc2cc(-c3nc([C@H]4CC[C@H](C(=O)O)CC4)n4ncnc(N)c34)[nH]c12 [OSI-027] (partner 0.5 µM)
How it was run: (§1)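 Relative viability divides the nuclei count in treated wells by that in vehicle wells. Lung cancer cell lines were seeded in 1536-well plates, dosed by pin tool the next day, and fixed and stained after 5 days in one step with final 0.05% Triton X-100, 1% formaldehyde and 1 ug/ml Hoechst. Dosing was a single drug or a fixed anchor-drug dose plus five library-drug doses (not always all listed) in √10 steps, and values are medians of duplicate plates imaged at 4×.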

JZL-184 + Trametinib = compound: C1CN(CCC1C(C2=CC3=C(C=C2)OCO3)(C4=CC5=C(C=C4)OCO5)O)C(=O)OC6=CC=C(C=C6)[N+](=O)[O-] [JZL-184] + CC(=O)Nc1cccc(-n2c(=O)n(C3CC3)c(=O)c3c(Nc4ccc(I)cc4F)n(C)c(=O)c(C)c32)c1 [Trametinib] (partner 0.02 µM)
How it was run: as §1

JZL-184 + Luminespib = compound: C1CN(CCC1C(C2=CC3=C(C=C2)OCO3)(C4=CC5=C(C=C4)OCO5)O)C(=O)OC6=CC=C(C=C6)[N+](=O)[O-] [JZL-184] + CCNC(=O)c1noc(-c2cc(C(C)C)c(O)cc2O)c1-c1ccc(CN2CCOCC2)cc1 [Luminespib] (partner 0.01 µM)
How it was run: as §1

JZL-184 + Vorinostat = compound: C1CN(CCC1C(C2=CC3=C(C=C2)OCO3)(C4=CC5=C(C=C4)OCO5)O)C(=O)OC6=CC=C(C=C6)[N+](=O)[O-] [JZL-184] + O=C(CCCCCCC(=O)Nc1ccccc1)NO [Vorinostat] (partner 1 µM)
How it was run: as §1

JZL-184 + AZD7762 = compound: C1CN(CCC1C(C2=CC3=C(C=C2)OCO3)(C4=CC5=C(C=C4)OCO5)O)C(=O)OC6=CC=C(C=C6)[N+](=O)[O-] [JZL-184] + NC(=O)Nc1cc(-c2cccc(F)c2)sc1C(=O)N[C@H]1CCCNC1 [AZD7762] (partner 0.2 µM)
How it was run: as §1

Row | Cell Line | relative viability (JZL-184 + OSI-027; first compound 0.04 µM) | relative viability (JZL-184 + OSI-027; first compound 0.4 µM) | relative viability (JZL-184 + OSI-027; first compound 1.265 µM) | relative viability (JZL-184 + OSI-027; first compound 4 µM) | relative viability (JZL-184 + Trametinib; first compound 0.04 µM) | relative viability (JZL-184 + Trametinib; first compound 0.4 µM) | relative viability (JZL-184 + Trametinib; first compound 1.265 µM) | relative viability (JZL-184 + Trametinib; first compound 4 µM) | relative viability (JZL-184 + Luminespib; first compound 0.04 µM) | relative viability (JZL-184 + Luminespib; first compound 0.4 µM) | relative viability (JZL-184 + Luminespib; first compound 1.265 µM) | relative viability (JZL-184 + Luminespib; first compound 4 µM) | relative viability (JZL-184 + Vorinostat; first compound 0.04 µM) | relative viability (JZL-184 + Vorinostat; first compound 0.4 µM) | relative viability (JZL-184 + Vorinostat; first compound 1.265 µM) | relative viability (JZL-184 + Vorinostat; first compound 4 µM) | relative viability (JZL-184 + AZD7762; first compound 0.04 µM) | relative viability (JZL-184 + AZD7762; first compound 0.4 µM) | relative viability (JZL-184 + AZD7762; first compound 1.265 µM) | relative viability (JZL-184 + AZD7762; first compound 4 µM)
1 | 201T | 0.754 | 0.685 | 0.744 | 0.701 | 0.676 | 0.724 | 0.706 | 0.688 | 1.05 | 1.05 | 1.04 | 1.03 | 0.995 | 0.983 | 1.01 | 0.902 | 0.711 | 0.57 | 0.586 | 0.611
2 | A-427 | 0.469 | 0.435 | 0.479 | 0.474 | 0.757 | 0.75 | 0.821 | 0.684 | 1.14 | 0.79 | 1.11 | 0.972 | 0.871 | 0.829 | 0.83 | 0.754 | 0.807 | 0.722 | 0.838 | 0.703
3 | ABC-1 | 0.644 | 0.441 | 0.667 | 0.448 | – | – | – | – | 1.23 | 0.557 | 0.628 | 0.495 | 1.59 | 0.961 | 1.42 | 0.929 | – | – | 0.715 | 0.968
4 | BEN | 0.289 | 0.254 | 0.324 | 0.296 | 0.967 | 1.06 | 1.07 | 1.04 | 0.421 | 0.318 | 0.67 | 0.281 | 0.538 | 0.524 | 0.538 | 0.594 | 0.731 | 0.666 | 0.752 | 0.792
5 | CAL-12T | 0.897 | 0.648 | 0.673 | 0.614 | 0.341 | 0.356 | 0.352 | 0.341 | 0.478 | 0.449 | 0.849 | 0.395 | 0.86 | 0.805 | 0.88 | 0.717 | 0.712 | 0.531 | 0.7 | 0.613
6 | COR-L23 | 0.964 | 0.783 | 0.806 | 0.64 | 0.774 | 0.516 | 0.684 | 0.54 | 0.776 | 0.7 | 0.781 | 0.642 | 0.649 | 0.472 | 0.477 | 0.459 | – | – | – | –
7 | COR-L 105 | 0.908 | 0.731 | 0.744 | 0.703 | 0.454 | 0.443 | 0.439 | 0.414 | 0.899 | 0.818 | 0.901 | 0.741 | 0.789 | 0.8 | 0.905 | 0.82 | – | – | – | –
8 | ChaGo-K-1 | 0.637 | 0.63 | 0.635 | 0.555 | 0.925 | 0.849 | 0.929 | 0.788 | 0.592 | 0.591 | 0.623 | 0.598 | 0.79 | 0.726 | 0.751 | 0.679 | 0.865 | 0.761 | 0.933 | 0.832
